Test results published in US11352350B2, “IRAK degraders and uses thereof” (Kymera Therapeutics, Inc., priority 2018, dated 2022).
Where two headings read alike, the source gives them in different places.

Assays:
[1] = system: OCI-LY10 tumor cells; assay: OCI-LY10 large B lymphoma xenograft model in C.B. 17 SCID mice; format: in vivo, mouse
Method: Cell Culture: The OCI-LY10 or TMD8 tumor cells were maintained as suspension in RPMI1640 medium supplemented with 10% fetal bovine serum, 100 U/mL penicillin and 100 μg/mL streptomycin at 37° C. in an atmosphere of 5% CO2 in air. The tumor cells were routinely subcultured twice weekly by trypsin-EDTA treatment. The cells growing in an exponential growth phase were harvested and counted for tumor inoculation.
Animals: C.B. 17 SCID, female, 6-8 weeks, weighing approximately 16-18 g were used. Animals were housed and maintained according to IACUC protocols.
Tumor Inoculation: Each mouse was inoculated subcutaneously at the right flank with OCI-LY10 or TMD8 tumor cells (10×10^6) in 0.2 mL of PBS with matrigel for tumor development. The treatments were started when the tumor sizes reached approximately 150-450 mm^3 for the studies.
Assignment to Groups: Before commencement of treatment, all animals were weighed and the tumor volumes were measured. Since the tumor volume can affect the compound PK/PD, mice are assigned into groups using an Excel-based randomization procedure performing stratified randomization based upon their tumor volumes.
Observation: After tumor inoculation, the animals were checked daily for morbidity and mortality. During routine monitoring, the animals were checked for any effects of tumor growth and treatments on behavior such as mobility, food and water consumption, body weight gain/loss, eye/hair matting and any other abnormalities. Mortality and observed clinical signs were recorded for individual animals in detail.
Data Collection: Tumor volumes were measured in two dimensions using a caliper, and the volumes were expressed in mm^3 using the formula: “V=(L×W×W)/2, where V is tumor volume, L is tumor length (the longest tumor dimension) and W is tumor width (the longest tumor dimension perpendicular to L).
At termination: At pre-determined time points based on study design, animals were humanely sacrificed by CO2. Blood was obtained by cardiac puncture for isolation of plasma, any residual tumor was removed and divided in 2 portions, 1 (minimal) for terminal compound exposure and 1 to determine IRAK4 and actin. Compound was determined in tumor and plasma using LC/MS with calibrated standards.

[2] = target: T1, IRAK4 (Homo sapiens (Human), UniProt Q9NWZ3); assay: IRAK4 MSD degradation in OCI-LY10; format: cell-based; settings: for DC50: OCI-LY10, 4 hrs, MSD, read-out: IRAK4 MSD degradation in OCI-LY10 at 4 hrs: Average external-Abs DC50
T1 sequence (Q9NWZ3 whole entry): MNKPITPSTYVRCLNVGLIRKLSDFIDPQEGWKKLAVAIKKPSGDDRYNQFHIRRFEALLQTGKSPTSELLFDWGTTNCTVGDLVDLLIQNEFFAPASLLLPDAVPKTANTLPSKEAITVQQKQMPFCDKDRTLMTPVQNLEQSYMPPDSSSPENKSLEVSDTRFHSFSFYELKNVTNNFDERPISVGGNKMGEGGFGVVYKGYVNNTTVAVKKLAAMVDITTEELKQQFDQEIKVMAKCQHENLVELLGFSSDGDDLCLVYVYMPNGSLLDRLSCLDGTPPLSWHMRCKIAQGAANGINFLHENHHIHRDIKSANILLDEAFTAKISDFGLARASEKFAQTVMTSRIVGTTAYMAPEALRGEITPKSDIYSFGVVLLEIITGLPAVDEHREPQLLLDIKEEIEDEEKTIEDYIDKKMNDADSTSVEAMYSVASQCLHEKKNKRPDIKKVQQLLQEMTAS
In short: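 OCI-LY10 cells treated with 8-point 1:3 dilutions (top 1 to 10 μM final) for 4 to 24 h at 37° C. Lysate IRAK4 measured by MSD sandwich immunoassay (2H9 capture, Y279 detection, SULFO-TAG anti-rabbit). DC50 from three-parameter logistic fit.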

[3] = system: OCI-LY10; assay: OCI-LY10 viability, CTG; format: cell-based; settings: for IC50: Homo sapiens, OCI-Ly10
[4] = target: T1, IRAK4; assay: IRAK4 degradation in human whole blood lymphocyte - flow cytometry; format: cell-based; settings: read-out: IRAK4 degradation in whole blood lymphocyte-Flow cytometry: Average external Abs IC50
In short: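 Fresh heparinized human whole blood dosed (10-point, 5-fold, 0.1% DMSO) for 20 h or 4 h at 37 °C, then fixed, stained and IRAK4 MFI quantified by flow in CD14+ monocytes and CD14− lymphocytes. DC50 and Dmax via 4-parameter logistic fit normalized to DMSO and 10 μM control.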

SMILES	antitumor effect in OCI-LY10 xenograft ([1]; FIG. 6 A-C)	in vivo tumor growth inhibition, combination with ibrutinib ([1]; OCI-LY10 (MYD88 L265P, CD79 mutant), combination of I-30 and ibrutinib at sub-optimal single agent concentrations, FIG. 13)	in vivo tumor growth of implanted OCI-LY10 (MYD88 mutant) cells ([1]; PO BID administration, FIG. 7)	DC50 [2]	depletion of IRAK4 in MYD88 mutant lymphoma cell lines ([2]; OCI-LY10 and TMD8, FIGS. 1-3 and 10)	Cell Titer Glo assay, combination effect ([3]; combination of ibrutinib and degrader I-30 (FIG. 12B))	DC50 [4]	antitumor activity against OCI-LY10, oral dosing ([1]; xenograft-bearing mice, FIG. 14)	IC50 ([3]; MYD88 MUT, read-out: OCI-LY10 CTG IC50)	IC50 ([3]; MYD88 Mutant Lines, read-out: OCI-LY10 Viability, CTG IC50)
CN(CCCOCCCc1cccc2c1n(C)c(=O)n2C1CCC(=O)NC1=O)C[C@H]1CC[C@H](n2cc(NC(=O)c3coc(-c4ccnc(NCC5CC5)c4)n3)c(C(F)F)n2)CC1 (mixture of isomers) [I-30, 2-[2-(Cyclopropylmethylamino)-4-pyridyl]-N-[3-(difluoromethyl)-1-[4-[[3-[3-[1-(2,6-dioxo-3-piperidyl)-3-methyl-2-oxo-benzimidazol-4-yl]propoxy]propyl-methyl-amino]methyl]cyclohexyl]pyrazol-4-yl] oxazole-4-carboxamide]	causes tumor regression	synergistic in vivo tumor growth inhibition	inhibits in vivo tumor growth	< 10 nM	potent depletion of IRAK4	synergism	< 50 nM	–	–	–
CN(C[C@H]1CC[C@H](n2cc(NC(=O)c3coc(-c4ccnc(NCC5CC5)c4)n3)c(C(F)F)n2)CC1)C1CCN(Cc2cccc3c2n(C)c(=O)n3C2CCC(=O)NC2=O)CC1 (stereo partly drawn) [I-75, 2-(2-((cyclopropylmethyl)amino)pyridin-4-yl)-N-(3-(difluoromethyl)-1-((1r,4r)-4-(((1-((1-(2,6-dioxopiperidin-3-yl)-3-methyl-2-oxo-2,3-dihydro-1H-benzo[d]imidazol-4-yl)methyl)piperidin-4-yl)(methyl)amino)methyl)cyclohexyl)-1H-pyrazol-4-yl)oxazole-4-carboxamide]	–	–	–	< 10 nM	–	–	50 to 100 nM	dose-dependent antitumor activity	11 nM	11 nM
